For orientation: AC50 means the concentration giving half of the maximal activity seen. Usually CC50 stands for the concentration giving 50% cytotoxicity. Read a high CC50 as lower toxicity to the cells.

Where two headings read alike, the source gives them in different places. Some results are limits rather than exact numbers.

Consider four compounds from PMC7822874, “Chemoprotective antimalarials identified through quantitative high-throughput screening of Plasmodium blood and liver stage parasites” (Scientific Reports, 2021).

In series [1] the test system is P. berghei-ANKA-GFP-LucCON liver stage parasites in HepG2-A16-CD81EGFP cells. The series is described as follows: P. berghei liver stage Pb-Luc assay, Method 1 (UCSD, 1536-well). The settings on record: Plasmodium berghei, Method 1; log10 of molar AC50 from Hill fit; read-out: Log AC50 (converted). Format: cell-based, Plasmodium berghei.
The subject of series [2] is luciferase-expressing P. berghei liver stage parasites in HepG2 cells. As to the kind of experiment: Inhibition of liver-stage development assay (ILSDA), Method 2 (WRAIR, 96-well). It is filed as cell-based, Plasmodium berghei. The settings on record: for AC50: Plasmodium berghei, HepG2, Method 2.
Series [3] has as its target T1, Firefly luciferase (Fluc, EC 1.13.12.7) (Photinus pyralis, UniProt P08659). As to the kind of experiment: biochemical. Also on record: Firefly luciferase enzyme inhibition counterscreen, luminescence with ATP and D-luciferin. The settings on record: read-out: Log AC50 (the source's name) (converted). As to the method: (§1) Compound activity against the Photinus pyralis luciferase (Firefly luciferase, Fluc) reporter utilized for the liver stage assay was determined as previously described using 10 nM Fluc (EC 1.13.12.7) and 10 μM of each substrate (ATP and D-luciferin)[68]. […] Luminescence was detected using ViewLux µHTS Microplate Imager. A counter screen of these 4253 compounds was also performed against the Fluc enzyme, as both liver stage methods utilized a transgenic P. berghei Fluc parasite.

Series [4] deals with T1, Firefly luciferase (Fluc, EC 1.13.12.7). As to the kind of experiment: biochemical. Also on record: Firefly luciferase enzyme inhibition counter-screen, luminescence read-out. Here is the method: as §1
Series [5] deals with HepG2. The settings on record: human, hepg2 cells, 48 h.
Series [6] is described as follows: in vitro. The settings on record: human, hepg2 cells.
Series [7] concerns T2, Plasmodium falciparum Dd2 asexual blood stage parasites.
T2 construct: Dd2 line, asexual blood stage
As to the kind of experiment: microbe, parasite or virus in culture. The settings on record: DD2, Erythrocyte, 72 h, SYBR Green-I. On the set-up: species or system P. falciparum Dd2 in human erythrocytes; SYBR Green-I proliferation assay, P. falciparum Dd2 asexual blood stages, growth inhibition. Here is the method:
The P. falciparum parasite Dd2 line was cultured in vitro using standard conditions63. Briefly, parasites were maintained in 2% human O+ erythrocytes (Interstate Blood Bank, Memphis, TN) in RPMI-1640 medium (Life Technologies, Grand Island, NY) supplemented with 0.5% Albumax II (Life Technologies), 2 mM l-glutamine, 50 mg/L hypoxanthine, 25 mM HEPES, 0.225% NaHCO3, 24 mM sodium bicarbonate, and 10 μg/ml gentamycin. Tissue culture flasks and assay plates were incubated at 37 °C under a gas mixture of 5% CO2, 5% O2 and 90% N2. Methods for the SYBR Green-I qHTS, calculation of AC50 (50% of the normalized compound response relative to the maximum response), and definition of curve classes have been described30,64–66. qHTS assays were performed in a single replicate with a 7- to 11-point dose response format, and follow-up screens with 3–11 independent 11-point response assays. Significant differences were assessed using two-sided Student’s t-tests. All HTS assays were stopped and read at 72 h. Percent response values represent relative growth as judged by SYBR Green-I fluorescence intensity values normalized to controls. […] […]

Series [8] deals with sporozoites / hepatocytes. The settings on record: cited from earlier work.

T1 sequence (P08659 whole entry): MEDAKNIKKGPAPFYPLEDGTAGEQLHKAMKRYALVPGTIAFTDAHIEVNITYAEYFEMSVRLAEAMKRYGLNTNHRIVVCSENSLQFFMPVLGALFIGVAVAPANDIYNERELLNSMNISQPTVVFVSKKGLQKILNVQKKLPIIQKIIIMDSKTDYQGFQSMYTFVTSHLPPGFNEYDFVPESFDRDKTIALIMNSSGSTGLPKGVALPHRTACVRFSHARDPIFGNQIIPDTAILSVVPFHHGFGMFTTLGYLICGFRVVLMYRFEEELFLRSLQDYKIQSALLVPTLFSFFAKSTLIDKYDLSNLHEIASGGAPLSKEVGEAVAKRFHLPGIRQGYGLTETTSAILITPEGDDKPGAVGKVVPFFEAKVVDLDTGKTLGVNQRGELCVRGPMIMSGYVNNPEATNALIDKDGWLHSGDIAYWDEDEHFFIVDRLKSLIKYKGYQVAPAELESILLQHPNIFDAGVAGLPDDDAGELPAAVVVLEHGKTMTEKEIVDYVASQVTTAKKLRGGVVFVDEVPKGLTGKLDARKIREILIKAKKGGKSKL

`CCN(CC)CCCN(c1ccccc1)C1Cc2ccccc2C1.Cl` [NCGC00167576-01]: the AC50 is 1.58 µM in series [1]; 7.94 µM in series [2] (Hill fit, 50% of maximum activity response, read-out: AC50); 7.94 µM in series [2] (log10 of molar AC50 from Hill fit, read-out: Log AC50 (converted)); > 57 µM in series [4]. Further, in series [2] (Method 2, Decrease = decreasing P. berghei viability with dose, Increase = increasing signal, Inactive = no dose response), the “Max Resp (signal direction of the dose response)” value is listed as “Decrease”. In addition, the IC50 in series [3] is > 57 µM. The “Log AC50 (M)” value in series [5] was -4.5643 M. The 50% cytotoxic concentration (CC50) at 48 h in series [6] amounted to 27.3 µM.

Regarding `COc1cc(Cc2cnc(N)nc2N)cc(OC)c1OC` [NCGC00016055-05], in series [7], the AC50 is > 28 µM.

As for `CC(C)(CN)c1nc(-c2ccc(Cl)c(O)c2)c(-c2ccncc2)[nH]1` [MMV030084], the IC50 in series [8] (added 2 h post sporozoite addition) is > 10 µM; in series [8] (pre-treat hepatocytes 4 h prior to adding sporozoites), 0.199 µM.

As for `CNC(=O)Oc1cccc(-c2cn3cc(OC(=O)NC)ccc3n2)c1` [MLS000700241-01], the AC50 in series [7] is > 28 µM.
